Measured values from patent publication US20240409536A1, “COMPOUNDS AND METHODS FOR MODULATING SPLICING” (REMIX THERAPEUTICS INC., priority 2021, published 2024).
pIC50: −log10 of the molar value.

Legend:
[1] = system: MYB mRNA; test: Splicing RT-qPCR assay, MYB canonical (CJ) and alternative (AJ) junction mRNA; assay type: cell-based; settings: Homo sapiens, A673 or K562 cells, 24 hours; for pIC50: decrease in canonical junction mRNA; for AC50: increase in alternative junction mRNA
Outline: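 Splice switching was scored by qPCR detection of the new alternative-exon junction (AJ) alongside the canonical junction (CJ). Cell lines A673 or K562 received compound 24 h, top dose 10 uM final.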

[2] = system: HiBiT-tagged HTT protein; test: HiBiT protein abundance assay, HTT (K562 HiBiT knock-in cells); assay type: cell-based, human; settings: 24 hours
Outline: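 K562 cells with endogenous HiBiT knock-in tag, 10-point 3-fold dilutions (top 10 μM final, ≤0.25% DMSO), 24 h at 37 °C. Lytic Nano-Glo HiBiT luminescence, normalized to DMSO and unmodified K562 baselines; IC50 is concentration giving 50% protein abundance from four-parameter fit.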

| Compound | pIC50 [1] | pIC50 [2] | AC50 [1] |
| --- | --- | --- | --- |
| Cc1cn2cc(NC(=O)c3ccc(N4C[C@@H](C)N[C@@H](C)C4)c4nccnc34)cc(C#N)c2n1 [Compound 294] | 6.00 to 7.00 | < 5.00 | 0.1 to 1 µM |
| Cc1cn2cc(NC(=O)c3ccc(C4=CCNCC4)c4nccnc34)cc(F)c2n1 [Compound 240, N-{8-fluoro-2-methylimidazo[1,2-a]pyridin-6-yl}-8-(1,2,3,6-tetrahydropyridin-4-yl)quinoxaline-5-carboxamide] | > 7.00 | > 7.00 | 0.1 to 1 µM |
| Cc1cn2cc(NC(=O)c3ccc(N4CC[C@@H](N)C4)c4ccnnc34)cc(F)c2n1 [Compound 270] | 6.00 to 7.00 | 5.00 to 6.00 | < 0.1 µM |
| C[C@@H]1CN(c2ccc(C(=O)Nc3cc(F)c4nn(C)cc4c3)c3nccnc23)C[C@@H](C)N1 [Compound 335] | 6.00 to 7.00 | 5.00 to 6.00 | 0.1 to 1 µM |
| Cc1cn2cc(NC(=O)c3ccc(N4CCC(NC5CC5)CC4)c4nccnc34)cc(F)c2n1 [Compound 258, 8-(4-(cyclopropylamino)piperidin-1-yl)-N-(8-fluoro-2-methylimidazo[1,2-a]pyridin-6-yl)quinoxaline-5-carboxamide] | 6.00 to 7.00 | 6.00 to 7.00 | 0.1 to 1 µM |
| C[C@@H]1CN(c2ccc(C(=O)Nc3cc(F)c4nc(Cl)cn4c3)c3nccnc23)C[C@H](C)N1 [Compound 306] | 6.00 to 7.00 | 5.00 to 6.00 | 0.1 to 1 µM |
| Cc1cn2cc(NC(=O)c3ccc(N4CCNCC4)c4ccnnc34)c(C)cc2n1 [Compound 119] | 5.00 to 6.00 | 5.00 to 6.00 | 1 to 10 µM |
| Cc1ccc2cc(NC(=O)c3ccc(N4C[C@@H](C)N[C@@H](C)C4)c4nccnc34)cc(F)c2n1 [Compound 353] | < 5.00 | < 5.00 | > 10 µM |
| COc1nc2ccc(NC(=O)c3ccc(N4C[C@@H](C)N[C@@H](C)C4)c4nccnc34)cc2o1 [Compound 292] | 5.00 to 6.00 | < 5.00 | > 10 µM |
| COc1nc2c(N3C[C@@H](C)N[C@@H](C)C3)ccc(C(=O)Nc3cc(F)c4nc(C)cn4c3)c2nc1C [Compound 260, 8-((3R,5S)-3,5-dimethylpiperazin-1-yl)-N-(8-fluoro-2-methylimidazo[1,2-a]pyridin-6-yl)-2-methoxy-3-methylquinoxaline-5-carboxamide; 2,2,2-trifluoroacetate] | 6.00 to 7.00 | 5.00 to 6.00 | 0.1 to 1 µM |
| Cc1cn2cc(NC(=O)c3ccc([C@@]45CCNCC4C5)c4nccnc34)cc(F)c2n1 (stereo in doubt) [Compound 248, 8-{3-azabicyclo[4.1.0]heptan-6-yl}-N-{8-fluoro-2-methylimidazo[1,2-a]pyridin-6-yl}quinoxaline-5-carboxamide 2,2,2-trifluoroacetate] | 6.00 to 7.00 | 5.00 to 6.00 | 0.1 to 1 µM |
| COc1nc(NC(=O)c2ccc(N3C[C@@H](C)N[C@@H](C)C3)c3nccnc23)nc2cn(C)nc12 [Compound 287] | 5.00 to 6.00 | < 5.00 | > 10 µM |
| Cc1cn2cc(NC(=O)c3ccc(N4CCN[C@@H](CF)C4)c4nccnc34)cc(F)c2n1 [Compound 367] | 5.00 to 6.00 | 5.00 to 6.00 | 1 to 10 µM |
| Cc1cn2cc(NC(=O)c3ccc(N4CCN[C@H](CF)C4)c4nccnc34)cc(F)c2n1 [Compound 366] | 6.00 to 7.00 | 5.00 to 6.00 | 0.1 to 1 µM |
| COc1cn2cc(NC(=O)c3ccc(N4C[C@@H](C)N[C@@H](C)C4)c4nccnc34)cc(F)c2n1 [Compound 357] | < 5.00 | < 5.00 | 1 to 10 µM |
| Cn1cc2ccc(NC(=O)c3ccc(N4CCNCC4)c4ccnnc34)cc2n1 [Compound 115] | < 5.00 | < 5.00 | > 10 µM |
| Cc1cn2cc(NC(=O)c3ccc(N4C[C@@H](C)N(O)[C@@H](C)C4)c4nccnc34)cc(F)c2n1 [Compound 355] | 6.00 to 7.00 | 5.00 to 6.00 | 0.1 to 1 µM |
| Cc1cn2cc(NC(=O)c3ccc(N4C[C@@H](C)N[C@@H](C)C4)c4cncnc34)cc(F)c2n1 [Compound 302] | 6.00 to 7.00 | 5.00 to 6.00 | 0.1 to 1 µM |
| Cc1cn2cc(NC(=O)c3ccc(N4CC(C)NC(C)C4)c4nc(C)c(C)nc34)cc(F)c2n1 (stereo not drawn) [Compound 257] | 6.00 to 7.00 | 5.00 to 6.00 | 1 to 10 µM |
| C[C@@H]1CN(c2ccc(C(=O)Nc3ccc4nc(N(C)C)oc4c3)c3nccnc23)C[C@H](C)N1 [Compound 290] | 5.00 to 6.00 | < 5.00 | > 10 µM |
| Cc1cn2c(C)c(NC(=O)c3ccc(N4C[C@@H](C)N[C@@H](C)C4)c4nccnc34)cc(F)c2n1 [Compound 285] | 6.00 to 7.00 | 5.00 to 6.00 | 1 to 10 µM |
| COc1ccc2c(N3C[C@@H](C)N[C@@H](C)C3)ccc(C(=O)Nc3cc(F)c4nc(C)cn4c3)c2n1 [Compound 268, 5-[(3R,5S)-3,5-dimethylpiperazin-1-yl]-N-{8-fluoro-2-methylimidazo[1,2-a]pyridin-6-yl}-2-methoxyquinoline-8-carboxamide] | 6.00 to 7.00 | 5.00 to 6.00 | < 0.1 µM |
| Cc1cn2cc(NC(=O)c3ccc(N4CCC(N)(CF)CC4)c4nccnc34)cc(F)c2n1 [Compound 356] | 5.00 to 6.00 | 5.00 to 6.00 | 1 to 10 µM |
| C[C@@H]1CN(c2ccc(C(=O)Nc3cc(F)c4nc(O)cn4c3)c3nccnc23)C[C@H](C)N1 [Compound 360] | < 5.00 | < 5.00 | > 10 µM |
| Cc1cn2cc(NC(=O)c3ccc(N4CC[C@@H](N(C)C)C4)c4nccnc34)cc(F)c2n1 [Compound 242, 8-[(3R)-3-(dimethylamino)pyrrolidin-1-yl]-N-{8-fluoro-2-methylimidazo[1,2-a]pyridin-6-yl}quinoxaline-5-carboxamide] | 6.00 to 7.00 | < 5.00 | 1 to 10 µM |

Continued, in another order:

| pIC50 [1] | pIC50 [2] | Compound | AC50 [1] |
| --- | --- | --- | --- |
| 6.00 to 7.00 | 5.00 to 6.00 | Cc1cn2cc(NC(=O)c3ccc(N4CC[C@@H](N)C4)c4nccnc34)cc(F)c2n1 [Compound 315] | 1 to 10 µM |
| 6.00 to 7.00 | 5.00 to 6.00 | Cc1cn2cc(NC(=O)c3ccc(N4CCNC5(CC5)C4)c4cccnc34)cc(F)c2n1 [Compound 341] | 0.1 to 1 µM |
| 6.00 to 7.00 | 5.00 to 6.00 | Cc1cn2cc(NC(=O)c3ccc(N4CCN[C@H](CO)C4)c4nccnc34)cc(F)c2n1 [Compound 362] | 0.1 to 1 µM |
| 6.00 to 7.00 | 5.00 to 6.00 | Cc1cn2cc(NC(=O)c3ccc(N4CCN(CCO)C5(CC5)C4)c4nccnc34)cc(F)c2n1 [Compound 369] | 0.1 to 1 µM |
| > 7.00 | 5.00 to 6.00 | Cc1cn2cc(NC(=O)c3ccc(N4C[C@@H](C)N[C@@H](C)C4)c4nccnc34)nc(Cl)c2n1 [Compound 279] | 0.1 to 1 µM |
| > 7.00 | 6.00 to 7.00 | Cc1cn2cc(NC(=O)c3ccc(N4CCC(NC5CC5)CC4)c4ccnnc34)cc(F)c2n1 [Compound 259, 5-[4-(cyclopropylamino)piperidin-1-yl]-N-{8-fluoro-2-methylimidazo[1,2-a]pyridin-6-yl} cinnoline-8-carboxamide] | < 0.1 µM |
| > 7.00 | 5.00 to 6.00 | Cc1cn2cc(NC(=O)c3c(F)cc(N4C[C@@H](C)N[C@@H](C)C4)c4nccnc34)cc(F)c2n1 [Compound 261, cis-8-[(3R,5S)-3,5-dimethylpiperazin-1-yl]-6-fluoro-N-{8-fluoro-2-methylimidazo[1,2-a]pyridin-6-yl}quinoxaline-5-carboxamide] | < 0.1 µM |
| > 7.00 | 6.00 to 7.00 | CN[C@@H]1CCN(c2ccc(C(=O)Nc3cc(F)c4nc(C)cn4c3)c3nnccc23)C1 [Compound 238, (R)—N-(8-fluoro-2-methylimidazo[1,2-a]pyridin-6-yl)-5-(3-(methylamino)pyrrolidin-1-yl)cinnoline-8-carboxamide] | < 0.1 µM |
| > 7.00 | 6.00 to 7.00 | Cc1cn2cc(NC(=O)c3ccc(N4C[C@@H](C)N[C@@H](C5CC5)C4)c4nccnc34)cc(F)c2n1 [Compound 266, 8-((3S,5R)-3-cyclopropyl-5-methylpiperazin-1-yl)-N-(8-fluoro-2-methylimidazo[1,2-a]pyridin-6-yl)quinoxaline-5-carboxamide] | < 0.1 µM |
| > 7.00 | 5.00 to 6.00 | Cc1cn2cc(NC(=O)c3ccc(N4CCNC(C)(CO)C4)c4nccnc34)cc(F)c2n1 (stereo not drawn) [Compound 368] | < 0.1 µM |
| > 7.00 | 5.00 to 6.00 | Cc1cn2cc(NC(=O)c3ccc(N4C[C@@H](C)N[C@H](C)C4)c4nccnc34)cc(F)c2n1 [Compound 312] | < 0.1 µM |
| > 7.00 | < 5.00 | Cc1cn2cc(NC(=O)c3ccc(N4C[C@@H](C)N[C@@H](C)C4)c4nccnc34)cc(Cl)c2n1 [Compound 304] | < 0.1 µM |
| > 7.00 | 5.00 to 6.00 | Cc1cn2cc(NC(=O)c3ccc(N4CCN[C@H](C5CC5)C4)c4nccnc34)cc(F)c2n1 [Compound 253, 8-[(3R)-3-cyclopropylpiperazin-1-yl]-N-{8-fluoro-2-methylimidazo[1,2-a]pyridin-6-yl}quinoxaline-5-carboxamide] | < 0.1 µM |
